In PubChem BioAssay (NCI) one finds GI50 and TGI data, which are given here for twelve molecules.

Structures are written as SMILES. Several values for one entry are separate records, joined by “and”; a condition that tells them apart may be missing. Equal entries are not always repeated.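 A five-concentration, 48-hour dose response in 96-well plates underlies each endpoint, interpolated linearly between surrounding concentrations. The concentration for 50% growth inhibition is given as GI50. At the TGI there is no net growth.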

Among the test systems are UO-31 renal; NCI-H226 lung; HOP-92 NSCLC; HCC-2998 colon; SN12C renal; SF-268 CNS; IGROV1 ovarian; SNB-75 CNS; BT-549 breast; UACC-257 melanoma.
Common to all, as to experiment: DTP human tumour cell line panel, 48 h

Consider `Cc1c(C(=O)Nc2ccc(N3C[C@@H](C)O[C@@H](C)C3)nc2)cccc1-c1ccc(OC(F)(F)F)cc1`, for which the GI50 in the assay on UO-31 renal is 3.52 µM and 8.63 µM; in the assay with NCI-H226 lung, 8.11 µM and 13.8 µM; with HOP-92 NSCLC, 2.51 µM and 1.79 µM; in the assay on HCC-2998 colon, 12.4 µM and 15.5 µM; in the assay with SN12C renal, 10.8 µM and 14.1 µM; with SF-268 CNS, 7.22 µM and 5.25 µM. The GI50 with IGROV1 ovarian was 9.63 µM and 11.6 µM; in the assay with SNB-75 CNS, 10.1 µM and 12.9 µM; with BT-549 breast, 10.4 µM and 15.1 µM; in the assay with UACC-257 melanoma, 10.7 µM and 12.6 µM. The TGI in the assay with UO-31 renal is 19 µM and 27 µM; with NCI-H226 lung, 31.9 µM and 40.8 µM; in the assay on HOP-92 NSCLC it was 13.7 µM and 13 µM; in the assay with HCC-2998 colon it was 36.1 µM and 42.3 µM; with SN12C renal, 29.8 µM and 44.6 µM; in the assay with SF-268 CNS, 28.9 µM and 25.9 µM. Moreover, the total growth inhibition concentration (TGI) is 37.5 µM and 33.6 µM in the assay with IGROV1 ovarian; 25.8 µM and 32.5 µM in the assay with SNB-75 CNS; 40.7 µM and 43.9 µM with BT-549 breast; 38 µM and 74.7 µM in the assay with UACC-257 melanoma.

With `CCC[CH2][Sn]1([CH2]CCC)[O]C(=O)c2cccc([N+](=O)[O-])c2C(=O)[O]1`, the GI50 with UO-31 renal was 0.329 µM; in the assay on NCI-H226 lung, 0.331 µM; in the assay with HOP-92 NSCLC, 0.228 µM; with HCC-2998 colon, 1.11 µM; in the assay on SN12C renal, 0.784 µM; in the assay on SF-268 CNS, 0.431 µM. In addition, the GI50 is 0.89 µM in the assay on IGROV1 ovarian, 0.324 µM in the assay on SNB-75 CNS, 0.849 µM with BT-549 breast and 0.292 µM with UACC-257 melanoma. The concentration for total growth inhibition (TGI) with UO-31 renal came to 1.41 µM; in the assay on NCI-H226 lung it was 1.34 µM; in the assay on HOP-92 NSCLC it was 1.66 µM; in the assay with HCC-2998 colon, 2.45 µM; in the assay on SN12C renal it was 2.15 µM; in the assay with SF-268 CNS, 1.65 µM. The concentration for total growth inhibition (TGI) in the assay on IGROV1 ovarian worked out at 2.38 µM; in the assay on SNB-75 CNS, 1.64 µM; in the assay on BT-549 breast, 2.09 µM; in the assay with UACC-257 melanoma it was 1.19 µM.

For the molecule `COc1cc2[nH]c3c(c2cc1OC)CCN[C@@]31CC[C@@]2(CC3c4c(cc(OC)c(O)c42)CCN3C)C[C@@H]1OC` (stereo not given in full), the TGI with UO-31 renal was 57.8 µM; in the assay with NCI-H226 lung it was over 100 µM; in the assay with HOP-92 NSCLC, 69.3 µM; with HCC-2998 colon, over 83.4 µM; in the assay with SN12C renal, over 100 µM; in the assay on SF-268 CNS, over 100 µM. Further, the concentration for total growth inhibition (TGI) with IGROV1 ovarian was over 100 µM; with SNB-75 CNS, 54 µM; in the assay with BT-549 breast it was over 71.3 µM; in the assay with UACC-257 melanoma, 32.9 µM.

Regarding `Cc1nnc(N/N=C/c2ccc([N+](=O)[O-])o2)[nH]c1=O`, the GI50 in the assay on UO-31 renal is 0.931 µM; with NCI-H226 lung it was 1.46 µM; in the assay with HOP-92 NSCLC it was 0.228 µM; with HCC-2998 colon, 1.14 µM; with SN12C renal it was 0.589 µM; with SF-268 CNS, 0.521 µM. The GI50 in the assay with IGROV1 ovarian is 3.82 µM; in the assay on SNB-75 CNS, 1.36 µM; in the assay with BT-549 breast it was 0.566 µM; in the assay on UACC-257 melanoma it was 0.0512 µM. Also, the TGI in the assay on UO-31 renal is 10.8 µM; in the assay with NCI-H226 lung, 25.4 µM; in the assay with HOP-92 NSCLC, 1.76 µM; in the assay with HCC-2998 colon, over 100 µM; in the assay with SN12C renal, 22.5 µM; in the assay on SF-268 CNS it was over 57.9 µM. For the same molecule, the TGI is over 100 µM in the assay with IGROV1 ovarian, 67.5 µM in the assay with SNB-75 CNS, over 21.5 µM with BT-549 breast and 5.26 µM with UACC-257 melanoma.

With `CCN(CC)CCOc1nc2ccccc2c2c1-c1ccc(OC)cc1C2=O`, the GI50 with UO-31 renal is 0.13 µM; with NCI-H226 lung, 0.935 µM; in the assay with HOP-92 NSCLC, 2.09 µM; in the assay with HCC-2998 colon, 1.26 µM; in the assay with SN12C renal, 0.502 µM; in the assay on SF-268 CNS, 0.445 µM. In addition, the GI50 was 0.384 µM with IGROV1 ovarian, 1.44 µM in the assay on SNB-75 CNS, 3.29 µM with BT-549 breast and 1.6 µM in the assay with UACC-257 melanoma. Besides, the TGI was 1.41 µM in the assay with UO-31 renal; 4.42 µM with NCI-H226 lung; over 28.6 µM with HOP-92 NSCLC; 3.21 µM in the assay on HCC-2998 colon; 6.21 µM in the assay on SN12C renal; 2.05 µM in the assay on SF-268 CNS. The concentration for total growth inhibition (TGI) came out at 2.63 µM with IGROV1 ovarian, 5.19 µM in the assay on SNB-75 CNS, 13.8 µM with BT-549 breast and 3.38 µM in the assay with UACC-257 melanoma.

On to `CC(=O)C(CN1C(=O)c2ccccc2C1=O)C(C)=O`, for which the TGI with UO-31 renal, with NCI-H226 lung, in the assay on HOP-92 NSCLC, with HCC-2998 colon, in the assay on SN12C renal and with SF-268 CNS was over 100 µM each time. For the same molecule, the concentration for total growth inhibition (TGI) in the assay on IGROV1 ovarian, in the assay on SNB-75 CNS, in the assay with BT-549 breast and with UACC-257 melanoma was over 100 µM throughout.

For the molecule `Cn1nc(C(F)(F)F)cc1-c1cc(Cl)c(OCc2ccc(Cl)cc2)c(-c2ccc(Cl)c(C(F)(F)F)c2)c1O`, the GI50 was 1.12 µM in the assay on UO-31 renal; 1.36 µM in the assay on NCI-H226 lung; 0.554 µM in the assay with HOP-92 NSCLC; 1.4 µM with HCC-2998 colon; 0.785 µM with SN12C renal; 1.24 µM in the assay with SF-268 CNS. Moreover, the GI50 in the assay on IGROV1 ovarian is 1.56 µM; in the assay on SNB-75 CNS, 0.984 µM; in the assay on BT-549 breast, 0.995 µM; in the assay on UACC-257 melanoma, 0.964 µM. The concentration for total growth inhibition (TGI) in the assay on UO-31 renal amounted to 3.51 µM; with NCI-H226 lung it was 4.3 µM; in the assay on HOP-92 NSCLC, 2.1 µM; in the assay on HCC-2998 colon it was 5.45 µM; in the assay on SN12C renal, 4.58 µM; in the assay on SF-268 CNS it was 5.47 µM. For the same molecule, the TGI was determined as 6.42 µM with IGROV1 ovarian, 2.68 µM in the assay on SNB-75 CNS, 2.75 µM in the assay on BT-549 breast and 3.14 µM with UACC-257 melanoma.

Consider `CN(C(=O)C(C)(C)C)c1ccccc1I(=O)=O`, for which the GI50 in the assay with UO-31 renal was over 100 µM; with NCI-H226 lung it was over 100 µM; in the assay with HOP-92 NSCLC it was 15.9 µM; with HCC-2998 colon it was over 100 µM; in the assay on SN12C renal, over 100 µM; in the assay with SF-268 CNS, over 100 µM. Also, the GI50 with IGROV1 ovarian, in the assay with SNB-75 CNS, with BT-549 breast and in the assay with UACC-257 melanoma was over 100 µM each time. In addition, the total growth inhibition concentration (TGI) is over 100 µM in the assay on UO-31 renal; over 100 µM in the assay on NCI-H226 lung; 96.7 µM with HOP-92 NSCLC; over 100 µM in the assay with HCC-2998 colon; over 100 µM in the assay with SN12C renal; over 100 µM in the assay with SF-268 CNS. Also, the TGI with IGROV1 ovarian, with SNB-75 CNS, with BT-549 breast and with UACC-257 melanoma was over 100 µM in each case.

Turning to `Cc1cc2nc3c(C#N)c(C)c(CCCl)c(Cl)n3c2cc1C`, the total growth inhibition concentration (TGI) with UO-31 renal worked out at 7.25 µM; with NCI-H226 lung, 8.17 µM; with HOP-92 NSCLC it was 4.76 µM; in the assay with HCC-2998 colon, 6.23 µM; in the assay on SN12C renal, 3.63 µM; in the assay on SF-268 CNS, 3.76 µM. Also, the TGI is 3.93 µM in the assay on IGROV1 ovarian, 4.63 µM in the assay with SNB-75 CNS, 7.15 µM in the assay with BT-549 breast and 5.02 µM in the assay on UACC-257 melanoma.

On to `CCC(=O)NC1=C(Cl)C(=O)C(NC(=O)CC)=C(Cl)C1=O`, for which the GI50 is 5.97 µM in the assay with UO-31 renal; over 45.6 µM in the assay on NCI-H226 lung; 9.98 µM in the assay with HOP-92 NSCLC; 17.4 µM in the assay on HCC-2998 colon; 17.7 µM in the assay with SN12C renal; 19.7 µM in the assay on SF-268 CNS. In addition, the GI50 in the assay on IGROV1 ovarian is 20.6 µM; with SNB-75 CNS, 13.7 µM; in the assay with BT-549 breast, 16 µM; with UACC-257 melanoma, 14.8 µM. Moreover, the TGI in the assay with UO-31 renal was 11.4 µM; in the assay on NCI-H226 lung, over 62.1 µM; in the assay with HOP-92 NSCLC it was 28.8 µM; in the assay with HCC-2998 colon it was 32.1 µM; with SN12C renal it was 31.9 µM; in the assay on SF-268 CNS, 34.2 µM. Moreover, the TGI in the assay on IGROV1 ovarian came to 37 µM; with SNB-75 CNS, 18.1 µM; in the assay with BT-549 breast, 29.7 µM; with UACC-257 melanoma, 28.3 µM.

Take `O=C(Nc1cccc([N+](=O)[O-])c1)c1cccc(C(=O)Nc2cccc([N+](=O)[O-])c2)c1`: the GI50 with UO-31 renal is over 100 µM; in the assay with NCI-H226 lung it was over 100 µM; in the assay with HOP-92 NSCLC, 8.85 µM; in the assay with HCC-2998 colon, over 100 µM; in the assay with SN12C renal, 60.3 µM; in the assay on SF-268 CNS, 5.22 µM. In addition, the GI50 with IGROV1 ovarian is 33.9 µM; with SNB-75 CNS, 8.42 µM; with BT-549 breast, 9.05 µM; in the assay on UACC-257 melanoma it was over 100 µM. Besides, the TGI was over 100 µM in the assay on UO-31 renal; over 100 µM in the assay with NCI-H226 lung; 60.7 µM with HOP-92 NSCLC; over 100 µM in the assay on HCC-2998 colon; over 100 µM in the assay with SN12C renal; over 100 µM in the assay on SF-268 CNS. For the same molecule, the TGI is over 100 µM with IGROV1 ovarian, 72.2 µM in the assay on SNB-75 CNS, over 100 µM with BT-549 breast and over 100 µM in the assay on UACC-257 melanoma.

Turning to `CCN1CCN(c2ccc(NC(=O)Nc3nc4ccc(-c5ccccc5OC)cc4s3)cc2)CC1`, the GI50 in the assay on UO-31 renal was 1.52 µM; with NCI-H226 lung, 2.09 µM; with HOP-92 NSCLC it was 1.47 µM; in the assay with HCC-2998 colon it was 1.83 µM; with SN12C renal it was 1.77 µM; in the assay with SF-268 CNS, 1.87 µM. Besides, the GI50 was 1.87 µM with IGROV1 ovarian, 1.49 µM in the assay with SNB-75 CNS, 1.88 µM in the assay on BT-549 breast and 2.11 µM with UACC-257 melanoma. In addition, the TGI stood at 2.92 µM in the assay with UO-31 renal; 4.52 µM in the assay with NCI-H226 lung; 3.75 µM with HOP-92 NSCLC; 3.39 µM in the assay with HCC-2998 colon; 3.37 µM in the assay on SN12C renal; 3.63 µM with SF-268 CNS. Moreover, the TGI in the assay on IGROV1 ovarian turned out to be 3.61 µM; with SNB-75 CNS, 2.86 µM; in the assay on BT-549 breast it was 3.73 µM; in the assay on UACC-257 melanoma, 3.79 µM.
